# Patent US10786521B2, “Methods and compositions for treatment of COPD diseases” (Shanghai KE Pharmaceutical Co., LTD, priority 2014, dated 2020)
# Legend:
# [1] = tested on: permeable (skinned) airway smooth muscle strips; test: Ca2+-induced sustained contraction of alpha-toxin permeabilized bronchial ring at constant calcium; type: cell-based, C57BL/6J mice; details: pCa 4.5 elicited contraction
# Protocol: To assess the requirement of calcium reduction for kudinoside-mediated relaxation, smooth muscle tissues permeable were made. Briefly, the fresh bronchial ring were separated by sharp dissection from C57BL/6J mice. Following incubation for 10 minutes in H-T buffer, the muscle strips were treated for 5 minutes in Ca^2+-free H-T buffer and for 5 minutes in buffer A (30 mmol/L TES, 0.5 mmol/L dithiothreitol, 50 mmol/L KCl, 5 mmol/L K2EGTA, 150 mmol/L sucrose, pH 7.4), and then were subsequently permeabilized in α-toxin (16,000 units/mL; Sigma) in buffer A for 40 minutes at room temperature.
# Treatment with […] ionomycin (Sigma) in buffer A for 10 minutes was used to deplete Ca^2+ stores. Permeable tissues were washed in pCa 9.0 solution (20 mmol/L TES, 4 mmol/L K2EGTA, 5.83 mmol/L MgCl2, 7.56 mmol/L potassium propionate, 3.9 mmol/L Na2ATP, 0.5 mmol/L dithioerythritol, 16.2 mmol/L phosphocreatine, 15 U/mL creatine kinase, pH 6.9), followed by incubation in pCa 4.5 solution (20 mmol/L TES, 4 mmol/L CaEGTA, 5.66 mmol/L MgCl2, 7.53 mmol/L potassium propionate, 3.9 mmol/L Na2ATP, 0.5 mmol/L dithioerythritol, 16.2 mmol/L phosphocreatine, 15 U/mL creatine kinase, pH 6.9) to elicit a sustained Ca^2+-induced contraction. After wash out the solution, permeable muscle strips were then incubated with pCa 5.0 solution and relaxed by adding Kudinoside D dissolved in pCa 5.0 solution.
# [2] = tested on: asthmatic airway constriction in acute asthma mouse model; test: Airway resistance (Rrs, FlexiVent) in OVA-induced, methacholine-challenged asthma mice; type: in vivo, C57BL/6 mice
# Protocol: Asthma mice were established as reported previously. Briefly, six to eight-week-old female C57BL/6 mice were carried out by intraperitoneal injection of 100 μg ovalbumin and 4 mg Imject Alum (ThermoFisher Scientific) in total volume of 0.2 mL on days 0 and 14. These mice were then challenged with 1.5%-2% aerosolized ovalbumin for 1 h on days 24, 25 and 26. The efficacy of drugs was evaluated by measuring airway resistance in these mice 24 h after the last challenge.
# (§1) The airway resistance was measured through an invasive method as described in previous reports. In brief, the mice were anesthetized with 240 mg/kg Avertin and the trachea was cannulated with an 18-gauge metal needle. Mechanical ventilation (FlexiVent; SCIREQ Inc., Montreal, Canada) was applied at a frequency of 150 breaths per minute, a tidal volume of 10 ml/kg, and positive end-expiratory pressure of 2.5 cm H2O. Prior to methacholine challenge, deep inflation was applied followed by administration of aerosolized PBS to obtain stabilization of airway resistance (Rrs, cmH2O·s/mL). The Rrs after PBS was considered to be the baseline. Then mice were challenged with sequential concentrations of methacholine with a dose of 2.0, 4.0, 8.0, 16, 32 and 64 mg/mL by an ultrasonic nebulizer until reaching bronchoconstrictive phase that was four to five folds greater than baseline. Three minutes after the last dose of methacholine inhalation, the reagents were delivered by the same ultrasonic nebulizer. The Rrs measurements were performed every 30 s throughout the experiments. The negative control for these studies was PBS, because all the solvents for reagents used here were PBS. As a positive control, albuterol (3 μg; Sigma), the most widely used β-agonist as an effective bronchodilator for asthma therapy, was used.
# as §1, with “Acute asthma model mice were established as reported previously. Briefly, six to eight-week-old female C57BL/6 mice were carried out by intraperitoneal injection of 100 μg ovalbumin and 4 mg Imject Alum (ThermoFisher Scientific) in total volume of 0.2 mL on days 0 and 14. These mice were then challenged with 1.5%-2% aerosolized ovalbumin for 1 h on days 24, 25 and 26. The efficacy of drugs by measuring airway resistance in these mice 24 h was evaluated after the last challenge. The airway” for “The airway”
# [3] = tested on: cytosolic calcium in primary airway smooth muscle cells; test: Calcium image (Fluo-4) of primary airway smooth muscle cells stimulated with acetylcholine; type: cell-based; details: 10 μM compound, then 100 μM acetylcholine; around 16 to 18 minutes
# Protocol: Primary airway smooth muscle cells were stimulated with 100 μM acetylcholine (ACh) (upper panels), resulting elevation and maintenance of calcium signals (arrow heads indicate typical alteration of the cells) for 8 minutes. After washing out ACh, new buffer containing 10 μM Kudinoside D was added, and then stimulated with 100 μM acetylcholine.
# Calcium image (1-3): Ca^2+ signal was measured by recording 488 nm laser excited Fluo-4 fluorescence with a laser confocal microscope (FV-1000, Olympus). After 3 times washing with D-Hanks solution, primary cultured airway smooth muscle cells were loaded with 2.5 μM Fluo-4 AM and 0.02% pluronic acid (F127) in D-Hanks for 30 min at room temperature. Then washed 3 times with D-Hanks, incubated in H-T buffer at 37° C. for 40 min. Ca^2+ signal was measured by recording 488 nm laser excited Fluo-4 fluorescence with a laser confocal microscope (FV-1000, Olympus).
structure (smiles),measurement,setting,value
C[C@@H]1O[C@@H](O[C@H]2[C@H](O[C@H]3CC[C@@]4(C)C(CC[C@]5(C)C4C=CC4=C6[C@]7(CC[C@](C)(OC7=O)[C@@]6(C)O)CC[C@]45C)C3(C)C)OC[C@H](O)[C@@H]2O[C@@H]2O[C@H](CO)[C@@H](O)[C@H](O)[C@H]2O)[C@H](O)[C@H](O)[C@H]1O (stereo partly shown) [Kudinoside D],relaxation of sustained Ca2+-induced contraction of skinned muscle strip,[1],"could not relax this sustained contraction, and contrarily slightly enhanced it"
same,"reduction of airway resistance, 0.03 μg",[2]; 0.03 μg inhaled,slight reduction
same,"airway resistance reduced to, at 1 minute after inhalation, 0.03 μg","[2]; 0.03 μg inhaled, 1 minute",69.65±5.87%
same,"reduction of airway resistance, 0.3 μg",[2]; 0.3 μg inhaled,significant reduction of airway resistance
same,"airway resistance reduced to, at 1 minute after inhalation, 0.3 μg","[2]; 0.3 μg inhaled, 1 minute",67.79±6.77%
same,"reduction of airway resistance at 3 minutes after inhalation compared with 3 μg albuterol, 0.3 μg","[2]; 0.3 μg inhaled, 3 minutes",more reduction of airway resistance than that of 3 μg of albuterol
same,"reduction of airway resistance, 3 μg",[2]; 3 μg inhaled,significant reduction of airway resistance
same,"airway resistance reduced to, at 1 minute after inhalation, 3 μg","[2]; 3 μg inhaled, 1 minute",45.81±6.87%
same,"reduction of airway resistance at 3 minutes after inhalation compared with 3 μg albuterol, 3 μg","[2]; 3 μg inhaled, 3 minutes",more reduction of airway resistance than that of 3 μg of albuterol
same,cytosolic calcium signal after acetylcholine stimulation,[3],significant reduction of calcium
